Laboratory results: patent US20220000811A1, “COMPOSITION FOR PROMOTING HAIR GROWTH COMPRISING A GUANINE DERIVATIVE” (KOREA RESEARCH INSTITUTE OF BIOSCIENCE AND BIOTECHNOLOGY, priority 2019, published 2022)

Columns and labels:
[1] = test system: HK2, LDHA, NDUS3, ATP5B, Wnt1a, Lef-1, Gli-1, versican; assay: Expression of genes related to metabolism and hair regeneration in skin tissue; assay type: in vivo, mouse
Description: (§1) During the hair telogen phase, the hair on the dorsal skin of 7-week-old C57BL/6 mice (Dae Han BioLink, Chungbuk, Republic of Korea) was depilated using an animal clipper and wax (Veet, Oxy Reckitt Benckiser, Seoul, Republic of Korea). From the next day, 200 μL of placebo (control), 1% IM, 1% minoxidil, or 1% metformin was applied daily to the depilated area using a sterile cotton swab. Images of each animal were captured daily, and the degree of darkness of the color on dorsal skin was quantified in the same area (1.6 cm×3 cm) using the Image J program. The mice were sacrificed, and skin tissues on days 0, 7, 14, and 20 were obtained. Half of the tissues were used for RNA isolation, and the other half were fixed with 4% paraformaldehyde overnight for histochemical analysis. The level of expression of genes related to metabolism and hair regeneration was analyzed through the skin tissue of each mouse group.

[2] = test system: human foreskin fibroblast (HFFs); assay: Reprogramming into iPSCs (OSKM) in human foreskin fibroblasts, AP staining; assay type: cell-based
Description: After 28 days, AP staining was performed (FIG. 3a), and the number of AP^+ colonies was quantified (FIG. 3b).

[3] = test system: K15, β-catenin, Ki67, Shh, PDK, PDH; assay: Histochemical (immunostaining) analysis of skin markers; assay type: in vivo, mouse
Description: as §1, with “tissues fixed in Example 1.1. were immersed in 30% sucrose, and then embedded in an OCT compound (Sakura Finetek USA Inc, Torrance, Calif., USA). Frozen fragments were obtained using a cryostat sectioning device (Leica, Wetzlar, Germany) and stained using hematoxylin (Sigma) and eosin (Sigma) (H&E), or each” for “level”, “the antibodies shown in Table 1 below. Immunohistochemical analysis was performed,” for “expression of genes related to metabolism”, “fluorescence images were taken with an Olympus microscope (Olympus)” for “hair regeneration was analyzed through the skin tissue of each mouse group.”

[4] = test system: C57BL/6 mice; assay: Hair regeneration model, darkness of dorsal skin and hair growth; assay type: in vivo, mouse
Description: as §1, with “It was confirmed whether the IM compound can promote hair growth without showing toxicity or other side effects through mouse experiments. In 7-week-old C57BL/6 mice, the telogen phase was motivated by hair removal, and various concentrations” for “The level”, “IM were applied topically to the dorsal skin” for “expression”, “of” for “of genes related to metabolism and hair regeneration was analyzed through”, “mice daily.” for “skin tissue of each mouse group.”

[5] = test system: K15/β-catenin, Ki67/Shh, K15/PDK, Ki67/PDH populations; assay: FACS analysis of single skin cells; assay type: in vivo, mouse
Description: as §1, with “After the mice were perfused with PBS” for “The level of expression of genes related”, “remove blood,” for “metabolism and hair regeneration was analyzed through”, “was harvested and cut into small pieces. The tissue was digested with trypsin (Thermo Fisher Scientific) at 37° C. for 150 minutes, then filtered through a 75 μm nylon mesh, followed by filtering through a 30 μm mesh (BD Biosciences). Single cells were fixed, permeabilized, and blocked according to the immunostaining protocol. The cells were stained with specific antibodies (Table 1 above) and analyzed with BD Accuri™ C6 (BD Biosciences)” for “of each mouse group.”

[6] = test system: C57BL/6 mice; assay: Side effects observed during hair regeneration experiment; assay type: in vivo, mouse; settings: topical treatment during the experiment
Description: as §1, with “analysis.” for “analysis. The level of expression of genes related to metabolism and hair regeneration was analyzed through the skin tissue of each mouse group.”

In the case of Cc1ccccc1CCNC(=N)NC(=N)N [IM176OUT05, N-1-(2-methyl)phenethylbiguanide], the “expression of stemness-related genes (Wnt1a, Lef-1, Gli-1, and versican)” value ([1]; day 7, skin) is reported as “significantly upregulated”, the “expression of glycolysis-related enzymes (HK2 and LDHA)” value ([1]; day 7, skin tissue) is reported as “significantly induced” and the “stemness-related genes compared to control” value ([1]; day 20, skin) is reported as “significantly induced”. For the same compound, the “expression of OXPHOS-related enzymes (NDUS3 and ATP5B) compared to control” value ([1]; day 20, skin tissue) was “increased”, the “expression of glycolysis-related enzymes (HK2 and LDHA) compared to control” value ([1]; day 20, skin tissue) was “significantly increased” and the enhancing reprogramming efficiency ([2]; 10 nM, 100 nM, and 500 nM, 28 days) was at least 2.4 times. The “concentration with the most excellent reprogramming efficacy” value ([2]; OSKM, after 28 days) was 10 nM, the Ki67-positive proliferating cells ([3]; day 7) was “identified” and the “PDH expression in Ki67-positive proliferating cells” value ([3]; day 7) was “clearly confirmed”. The “PDK expression in K15-positive stem cells” value ([3]; day 7) was “detected”, the “expression of δ-catenin” value ([3]; day 7) was “increased” and the “keratin 15 (K15) expression in follicle protrusion region compared to control or minoxidil” value ([3]; day 7) was “strongly expressed”. The “K15/PDH and Ki67/PDK expressions” value ([3]; day 20) was “independently detected”, the “Sonic hedgehog (Shh) detection” value ([3]; day 20) was “clearly detected” and the “black pigmentation and hair growth” value ([4]; 1% topical daily on dorsal skin, day 9) was “remarkably observed”. The “hair growth, male and female mice” value ([4]; 1% topical daily, comparison with minoxidil) was “promoted hair growth in both male and female mice”, the “skin color compared to control or minoxidil-treated mice” value ([4]; 1% topical daily, day 8) was “clearly darkened” and the hair growth ([4]; 1% topical daily, day 10) was “markedly promoted”. For the same compound, the “hair growth in female mice” value ([4]; 1% topical daily, female mice) was “strong promoting effect”, the “effect compared to minoxidil, independent experiment” value ([4]; female mice) was “excellent effect as compared to minoxidil” and the “K15+/PDK+ population in single skin cells” value ([5]; day 7, FACS) was 5.9%. For the same compound, the “K15+/β-catenin+ population in single skin cells” value ([5]; day 7, FACS) was 11.7%, the “Ki67+/PDH+ population” value ([5]; day 7, FACS) was 13.7% and the “increase of K15+/β-catenin+ population compared to control” value ([5]; day 7, FACS) was 3.7. For the same compound, the “increase of glycolytic stem cell population (K15+/PDK+) compared to control” value ([5]; day 7, FACS) was “at least 6.6 times”, the “Ki67+/Shh+ population in single skin cells” value ([5]; day 20, FACS) was 36.7% and the “PDK+ cell population and Ki67+ cell population” value ([5]; day 20, FACS) was “increased”. For the same compound, the “increase of Ki67+/Shh+ population compared to control” value ([5]; day 20, FACS) was 2.7 times, the “separated populations of PDH+ cells and K15+ cells” value ([5]; day 20, FACS) was “increased” and the “side effects, including skin problems” value [6] was “No side effects”.
